Results reported in article PMC7997382 (2020).

How the values were obtained:
Experiment in all cases: ESI-MS, negative mode
[1] = tested on: 20 mer double strand DNA (dsDNA) (DNA, duplex) GTCCATGCCCCAGGCCCACC/GGTGGGCCTGGGGCATGGAC; conditions: ammonium acetate 15 mM, 10-fold molar excess of compound, room temperature, 24 h, diluted 1:10, pH 6.8
[2] = tested on: ssDNA1 (DNA, single strand) GTCCATGCCCCAGGCCCACC; conditions: ammonium acetate 15 mM, 10-fold molar excess over dsDNA, 24 h, ssDNA in equilibrium with dsDNA
[3] = tested on: ssDNA2 (DNA, single strand) GGTGGGCCTGGGGCATGGAC; conditions: ammonium acetate 15 mM, 10-fold molar excess over dsDNA, 24 h, ssDNA in equilibrium with dsDNA

binding ([1]; covalent, each cisplatin lost both chloride ligands) | binding [1] | binding ([2]; no adduct peak) | binding ([3]; no adduct peak) | binding ([2]; partial binding) | binding ([3]; partial binding) | Structure (SMILES)
yes |  |  |  |  |  | N.N.[Cl-].[Cl-].[Pt+2]
 | yes | no | no |  |  | C=C.CC(=O)OC[C@H]1O[C@@H](N2[C]N(C)C=C2)[C@H](OC(C)=O)[C@@H](OC(C)=O)[C@@H]1OC(C)=O.Cc1ccc2ccc3ccc(C)nc3c2n1.[CH3-].[Pt+2]
 | yes |  |  | weak | weak | CC(=O)OC[C@H]1O[C@@H](N2[C]N(C)C=C2)[C@H](OC(C)=O)[C@@H](OC(C)=O)[C@@H]1OC(C)=O.[CH3-].[CH3-].[CH3-].[Pt+4].c1cnc2c(c1)ccc1cccnc12
